Several values for one entry are separate records, joined by “and”; a condition that tells them apart may be missing. Identical values can stand only once.
Key:
Assay type in all cases: cell-based
[1] = system: Staphylococcus aureus ATCC 25923; assay: MIC determination and synergy testing (Kull synergy index), microplate; details: for QA, MIC of CHDM alone / QA/a: concentration of CHDM alone (QA, MIC): S. aureus; for QA/a: concentration of CHDM alone (QA, MIC): Table 49
Method in brief: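 Broth microdilution in TSB (pH 7.3) for bacteria or SDB (pH 5.6) for C. albicans, 1:1.3333 serial dilutions covering one log in nine steps, agents alone or blended for synergy; triplicate wells inoculated to ~10^6 CFU/mL bacteria or ~10^5 CFU/mL yeast; uninoculated wells correct compound turbidity.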

[2] = system: biodiesel-acclimated bioslime; assay: 15-day biofouling control in B-100 biodiesel:Bushnell-Haas broth, visual turbidity; design: key to Growth (visual turbidity rating): 0 = No Growth; 1 = Slight Growth; 2 = Moderate Growth; 3 = Heavy Growth; details: 15 days, 22° C.; for Enhancement of the preservative (inhibitory) action of Killem biocide (in words): B-100 biodiesel, bioslime or trivalent bacterial-fungal inocula (Tables 54 & 55); for Growth (visual turbidity rating): biocide 0 mg/L, bioslime inoculum 50 uL
Description: (§1) Antimicrobial efficacy data (Table 54 & Table 55) were obtained for 1,4-CHDM with and without biocide in protection of B-100 biodiesel from microbial growth derived via either biodiesel-acclimated bioslime or trivalent bacterial-fungal inocula after 15-day exposure at 22° C. This testing was via a visual turbidity methodology. Neither micro-liter plates nor automatic plate reader could be used in this experiment due to the inherent biphasic nature of the system. B-100 biodiesel:Bushnell-Haas broth was used, which is a minimal salts medium specially designed for evaluating growth of microorganisms on hydrocarbons. Samples were evaluated visually (i.e., the more the turbidity, the more the growth, the less the turbidity, the less the growth, and no turbidity means no growth).

[3] = system: trivalent bacterial-fungal inocula; assay: as above; design: key: 0 = No Growth; 1 = Slight Growth; 2 = Moderate Growth; 3 = Heavy Growth; details: biocide 0 mg/L, 15 days, 22° C., trivalent inoculum 50 uL
Description: as §1

## OCC1CCC(CO)CC1 (centres unmarked) [1,4-CHDM, 1,4-cyclohexanedimethanol]
[1]; CHDM alone (QA) or in combination with BA:DHA (a), plate 139D, day 1
  QA/a: 3.11
[1]; CHDM alone (QA) or in combination with BA:DHA (a), plate 139D, day 2
  QA/a: 4.15
[1]; CHDM alone (QA) or in combination with BA:DHA (a), plate 220D, day 1
  QA/a: 3.30
[1]; CHDM alone (QA) or in combination with BA:DHA (a), plate 220D, day 2
  QA/a: 3.30
[1]; CHDM alone (QA) or in combination with BA:DHA (a), plate 235D, day 1
  QA/a: 5.00
[1]; CHDM alone (QA) or in combination with BA:DHA (a), plate 235D, day 2
  QA/a: 5.00
[1]; CHDM: MIC alone (QA) or conc. in combination with CP (a), plate 138D, day 1
  QA/a: 3.11
[1]; CHDM: MIC alone (QA) or conc. in combination with CP (a), plate 138D, day 2
  QA/a: 4.15
[1]; CHDM: MIC alone (QA) or conc. in combination with MIT (a), plate 137D, day 2
  QA/a: 4.15
[1]; CHDM: MIC alone (QA) or conc. in combination with MP (a), plate 166D, day 1
  QA/a: 3.30
[1]; CHDM: MIC alone (QA) or conc. in combination with MP (a), plate 166D, day 2
  QA/a: 3.30
[1]; day 1 of incubation, plate 125D (CG series)
  QA, MIC of CHDM alone: 3.11 weight percent
[1]; day 1 of incubation, plates 124D, 219D, 234D (PE series)
  QA, MIC of CHDM alone: 3.30 weight percent and 3.75 weight percent and 3.11 weight percent
[1]; day 2 of incubation, plate 125D (CG series)
  QA, MIC of CHDM alone: 3.11 weight percent
[1]; day 2 of incubation, plates 124D, 219D (PE series)
  QA, MIC of CHDM alone: 3.11 weight percent and 3.30 weight percent
[1]; Day 1
  QA/a: concentration of CHDM alone (QA, MIC): 3.11 weight percent
[1]; Day 2
  QA/a: concentration of CHDM alone (QA, MIC): 4.15 weight percent
[2]; Killem biocide 200 ppm, 1,4-CHDM 0.2-0.5 wt %
  Enhancement of the preservative (inhibitory) action of Killem biocide (in words): enhanced the preservative (inhibitory) action of the Killem biocide
[2]; biocide 50 ppm or 100 ppm, or 1,4-CHDM 0.1 wt %
  Enhancement of the preservative (inhibitory) action of Killem biocide (in words): No enhancement
[2]; 1,4-CHDM 0.1% (v/v)
  Growth (visual turbidity rating): 3
[2]; 1,4-CHDM 0.2% (v/v)
  Growth (visual turbidity rating): 3
[2]; 1,4-CHDM 0.3% (v/v)
  Growth (visual turbidity rating): 3
[2]; 1,4-CHDM 0.4% (v/v)
  Growth (visual turbidity rating): 3
[2]; 1,4-CHDM 0.5% (v/v)
  Growth (visual turbidity rating): 3
[3]; 1,4-CHDM 0.1% (v/v)
  Growth (visual turbidity rating): 3
[3]; 1,4-CHDM 0.2% (v/v)
  Growth (visual turbidity rating): 3
[3]; 1,4-CHDM 0.3% (v/v)
  Growth (visual turbidity rating): 3
[3]; 1,4-CHDM 0.4% (v/v)
  Growth (visual turbidity rating): 3
[3]; 1,4-CHDM 0.5% (v/v)
  Growth (visual turbidity rating): 3
